Key:
Assay in all cases: Test B pre-/postemergence plant response
Type in all cases: in vivo
[1] = test system: bermudagrass (Cynodon dactylon)
Method in brief: (§1)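 Visual ratings on a 0–100 scale (100 = complete control) were made versus untreated controls 13–15 days after treatment in a greenhouse. Compounds in surfactant-containing non-phytotoxic solvent were applied preemergence to seeds in loam–sand blend or postemergence to 1- to 4-leaf plants (2–18 cm).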

[2] = test system: goosegrass (Eleusine indica)
Method in brief: as §1

[3] = test system: green foxtail (Setaria viridis)
Method in brief: as §1

[4] = test system: johnsongrass (Sorghum halepense)
Method in brief: as §1

kochia (Kochia scoparia) = conditions: Postemergence; for Plant response rating, Kochia: scale 0 (no effect) to 100 (complete control)
Method in brief: as §1

[5] = test system: lambsquarters (Chenopodium album)
Method in brief: as §1

[6] = test system: large crabgrass (Digitaria sanguinalis)
Method in brief: as §1

[7] = test system: ragweed (common ragweed, Ambrosia elatior)
Method in brief: as §1

soybean (Glycine max) = test system: soybean (Glycine max)
Method in brief: as §1

[8] = test system: velvetleaf (Abutilon theophrasti)
Method in brief: as §1

[9] = test system: wheat (Triticum aestivum)
Method in brief: as §1

[10] = test system: woolly cupgrass (Eriochloa villosa)
Method in brief: as §1

[11] = test system: yellow nutsedge (Cyperus esculentus)
Method in brief: as §1

[12] = 250 g ai/ha, Preemergence, 0 to 100 scale
[13] = Postemergence, 31 g ai/ha, scale 0 to 100 (0 no effect, 100 complete control)
[14] = Postemergence, 62 g ai/ha, scale 0 (no effect) to 100 (complete control), 13 to 15 days
[15] = Postemergence, 125 g ai/ha, visual rating after 13 to 15 days, scale 0 (no effect) to 100 (complete control)
[16] = Postemergence, 250 g ai/ha, scale 0 to 100
[17] = Preemergence, 31 g ai/ha, scale 0 to 100 (0 no effect, 100 complete control)
[18] = Preemergence, 62 g ai/ha, scale 0 to 100 (0 no effect, 100 complete control)
[19] = Preemergence, 125 g ai/ha, 0 to 100 scale

Cc1ccc(F)cc1-n1c(-c2ccccc2)ncc(C(=O)C2=C(O)CCCC2=O)c1=O [Compound 44]
75: Plant response rating, Johnsongrass [4, 18] | Plant response rating, Kochia (kochia (Kochia scoparia); 62 g ai/ha, 13 to 15 days) | Plant response rating, Kochia (kochia (Kochia scoparia); 125 g ai/ha, visual rating after 13 to 15 days) | Plant response rating, Crabgrass, Large [6, 18] | Plant response rating, Velvetleaf [8, 17] | Nutsedge, Yellow plant response rating [11, 19]
70: Plant response rating, Johnsongrass [4, 14]
0: Plant response rating, Foxtail, Green [3, 17] | Plant response rating, Soybean (soybean (Glycine max); [12]) | Plant response rating, Soybean (soybean (Glycine max); [17]) | Soybean plant response rating (soybean (Glycine max); [19]) | Plant response rating, Wheat [9, 12] | Plant response rating, Wheat [9, 17] | Wheat plant response rating [9, 19] | Plant response rating, Cupgrass, Woolly [10, 17]
10: Plant response rating, Johnsongrass [4, 17] | Plant response rating, Wheat [9, 14]
100: Plant response rating, Bermudagrass [1, 12] | Plant response rating, Bermudagrass [1, 17] | Plant response rating, Bermudagrass [1, 18] | Bermudagrass plant response rating [1, 19] | Plant response rating, Goosegrass [2, 12] | Goosegrass plant response rating [2, 19] | Plant response rating, Foxtail, Green [3, 12] | Plant response rating, Lambsquarters [5, 12] | Plant response rating, Lambsquarters [5, 17] | Plant response rating, Lambsquarters [5, 18] | Lambsquarters plant response rating [5, 19] | Plant response rating, Crabgrass, Large [6, 12] | Crabgrass, Large plant response rating [6, 19] | Plant response rating, Velvetleaf [8, 12] | Plant response rating, Velvetleaf [8, 15] | Velvetleaf plant response rating [8, 19]
20: Plant response rating, Ragweed [7, 17]
80: Plant response rating, Bermudagrass [1, 13] | Plant response rating, Cupgrass, Woolly [10, 13] | Plant response rating, Cupgrass, Woolly [10, 14] | Cupgrass, Woolly plant response rating [10, 19]
30: Plant response rating, Wheat [9, 15]
85: Plant response rating, Crabgrass, Large [6, 13] | Plant response rating, Cupgrass, Woolly [10, 12] | Plant response rating, Cupgrass, Woolly [10, 15]
90: Plant response rating, Goosegrass [2, 14] | Plant response rating, Goosegrass [2, 15] | Plant response rating, Goosegrass [2, 17] | Plant response rating, Foxtail, Green [3, 13] | Plant response rating, Foxtail, Green [3, 14] | Plant response rating, Foxtail, Green [3, 15] | Foxtail, Green plant response rating [3, 16] | Plant response rating, Johnsongrass [4, 15] | Johnsongrass plant response rating [4, 19] | Plant response rating, Crabgrass, Large [6, 14] | Plant response rating, Nutsedge, Yellow [11, 12]
65: Plant response rating, Crabgrass, Large [6, 17]
45: Plant response rating, Cupgrass, Woolly [10, 18] | Plant response rating, Nutsedge, Yellow [11, 17]
95: Plant response rating, Bermudagrass [1, 14] | Plant response rating, Bermudagrass [1, 15] | Goosegrass plant response rating [2, 16] | Plant response rating, Johnsongrass [4, 12] | Johnsongrass plant response rating [4, 16] | Kochia plant response rating (kochia (Kochia scoparia); 250 g ai/ha, scale 0 to 100) | Plant response rating, Lambsquarters [5, 14] | Plant response rating, Lambsquarters [5, 15] | Plant response rating, Crabgrass, Large [6, 15] | Plant response rating, Ragweed [7, 12] | Plant response rating, Ragweed [7, 14] | Plant response rating, Ragweed [7, 15] | Ragweed plant response rating [7, 19] | Plant response rating, Soybean (soybean (Glycine max); [14]) | Plant response rating, Soybean (soybean (Glycine max); [15]) | Cupgrass, Woolly plant response rating [10, 16]
50: Plant response rating, Nutsedge, Yellow [11, 14] | Plant response rating, Nutsedge, Yellow [11, 15]
98: Bermudagrass plant response rating [1, 16] | Plant response rating, Foxtail, Green [3, 18] | Foxtail, Green plant response rating [3, 19] | Lambsquarters plant response rating [5, 16] | Crabgrass, Large plant response rating [6, 16] | Plant response rating, Velvetleaf [8, 14]
